Data set [1] has as its system H. contortus xL3s. Description: Cell lethality in xL3s (Sytox Green staining). In kind it is cell-based, Haemonchus contortus. The method, then:
Fluorescence staining was employed to assess the ability of UMW-868 to reduce the viability of H. contortus. The xL3s were dispensed in 96-well plates at a density of 300 xL3 per well, and incubated with compounds UMW-868 or A-3155, non-active analogs of UMW-868, at 50 μM at 38°C, 10% (v/v) CO2 and >90% relative humidity. After 90 h of incubation, H. contortus xL3s were stained with Sytox Green nucleic acid stain (Thermo Fisher Scientific) at the final concentration of 1 µM in LB* in the same 96-well plates and incubated for 1 h at 38°C and 10% (v/v) CO2 with >90% relative humidity. Following the incubation, the viability of larvae was evaluated by measuring the relative fluorescent units (RFU) of xL3s using an Omega FLUOstar microplate reader (BMG Labtech), with excitation and emission wavelengths set at 485 nm and 520 nm, respectively. The 96-well plates containing the stained larvae were returned to the incubator for further 78 h; after a total of 168 h of compound exposure, the stained larvae were examined under an inverted fluorescence microscope (DM IL, Leica) equipped with a green fluorescent protein filter (470/500/525 […]; Leica), and imaged using Leica Application Suite software (Leica).

Data set [2] has as its system H. contortus xL3s. Put plainly: Dose-response evaluation, xL3 motility. In kind it is cell-based. The following applies: Haemonchus contortus, 168 h, analog series; read-out: xL3 motility reduction (IC50 in µM). The method, then:
(§1) These evaluations were carried out to estimate the half-maximal inhibitory concentrations (IC50 values) for hit compounds against H. contortus xL3s. With reference to the two positive-control compounds (monepantel and moxidectin), IC50 values for compounds were estimated ([Preston et al., 2015]; [Taki et al., 2021a]) using two-fold serial dilution (in LB*; 9 points from 50 μM to 0.2 µM) in 96-well plates (cat. no. 3596; Corning) with larvae at a density of 300 H. contortus xL3s in 100 µl per well. Plates containing H. contortus xL3s were incubated at 38°C, 10% (v/v) CO2 and >90% relative humidity.
(§2) Compound concentrations were log10-transformed and fitted using a variable slope four-parameter equation, constraining the highest value to 100% employing a least squares (ordinary) fit model using GraphPad Prism software (v.9.1.2). Compounds were tested by three independent experiments in triplicate. A one-way analysis of variance (ANOVA) with a Tukey’s multiple comparison test or an unpaired t-test was used to establish statistically significant differences in larval motility or development.

Data set [3] deals with mitochondria of HepG2 human hepatoma cells. Put plainly: Mitochondrial toxicity in HepG2 cells (galactose medium). The following applies: HepG2, 48 h. The class given is cell-based. The method, then:
(§3) The toxicities of compounds on cell and mitochondria were assessed to estimate their half-maximal cytotoxic concentrations (CC50) and half-maximal mitotoxic concentrations (MC50), respectively. HepG2 human hepatoma cells were seeded into wells of a 96-well plate at a density of 5.5 × 10^4 cells per well in 80 µl of Dulbecco’s modified eagle medium (DMEM; with GlutaMax™ cat. no. 10566016 or 4 mM L-glutamine cat. no. 11966025; Thermo Fisher Scientific), supplemented with 25 mM D-glucose (cytotoxicity) or D-galactose (mitotoxicity), 10% (v/v) inactivated foetal bovine serum (iFBS), 100 IU/ml of penicillin, 100 μg/ml of streptomycin and 0.25 μg/ml of amphotericin B (designated DMEM*). Cells were allowed to adhere for 16 h at 37°C and 5% (v/v) CO2 at > 90% relative humidity, then, incubated for 48 h with individual, serially-diluted compounds (two-fold serial dilution in DMEM*; […]) in a final volume of 100 µl. For the assessment of toxicity on mitochondria, cells were starved of serum (DMEM* without iFBS) for 4 h prior to the 48 h-incubation with compounds ([Swiss and Will, 2011]; [Kamalian et al., 2015]). Two positive control compounds, doxorubicin (cytotoxic control) and M-666 (mitotoxic control) were each added to three individual wells in each 96-well plate at a single concentration of 10 µM. DMEM* + 0.25% (v/v) DMSO was added to 12 wells in each plate as negative controls. Monepantel and moxidectin were also serially diluted — prepared in the same manner as test compounds — and used as (“non-toxic”) reference compounds. After 48 h of incubation, cell viability was determined by the crystal violet staining method ([Śliwka et al., 2016]). The absorbance (595 nm) of treated cells was normalised with reference to the negative control (100% viability). To determine the CC50 and MC50 values, compound concentrations were log10-transformed, baseline-corrected using a respective positive control (doxorubicin or M-666) and fitted using a variable slope four-parameter equation with a least squares (ordinary) fit model using GraphPad Prism software (v.9.1.2). Compounds and controls were tested in triplicate.

A further data set deals with eggs of H. contortus. Description: Egg hatch assay. The following applies: Haemonchus contortus, 48 h; read-out: Egg hatch inhibition (IC50 in µM). In kind it is cell-based. The method, then: Compounds were also assessed for their effect on the hatching of eggs of H. contortus in vitro. To do this, eggs were isolated from the faeces from sheep with patent (30 day-) H. contortus infection by sucrose flotation ([Mes et al., 2007]). Eggs were suspended in H2O at a concentration of one egg per µl. The eggs were dispensed into wells (in triplicate; 100 eggs per well) and incubated with two-fold serial dilutions (9 points from 50 μM to 0.2 µM in H2O) of individual test or control compounds for 48 h at 27°C and >90% relative humidity; wells with no compound were also included. The numbers (percentages) of eggs from which first-stage larvae (L1s) hatched were counted using a light microscope (M80, Leica) at a 40-times magnification. With reference to positive-control compounds (i.e., monepantel and moxidectin), IC50 values of compounds were calculated.

A short description of data set [4]: Cellular toxicity in HepG2 cells (crystal violet). In kind it is cell-based, human. The following applies: human, HepG2 human hepatoma cells; HepG2, 48 h; read-out: Cytotoxicity (48 h) CC50. The method, then: as §3
In data set [5] the test system is H. contortus fourth-stage larvae (L4s) development. Description: Dose-response evaluation, L4 development. The settings on record: Haemonchus contortus; 168 h, analog series; read-out: L4 development inhibition (IC50 in µM). In kind it is cell-based, Haemonchus contortus. The method, then:
as §1
as §2, with “The motility of H. contortus xL3s and L4 development were measured following 168 h of incubation with compound ([Taki et al., 2021a]). Compound concentrations” for “Compound concentrations”

Entries after “also recorded” stand apart in the source; their conditions may differ. A value given as a limit tells only on which side of the number the result lay.

Take `NC(=O)c1ccc(-c2nc(-c3cccs3)no2)cc1` [Compound A-3155]: in the data set with H. contortus xL3s [1] (90 h), the “lethality / viability of xL3s (in words)” value is listed as “remained viable; also recorded: non-lethal”. For the same compound, in the data set with H. contortus xL3s [1] (168 h of exposure), the “dead cells detected microscopically in xL3s (Sytox Green)” value was “no dead cells were detected”.
`c1ccc(-c2noc(-c3cccs3)n2)cc1` [Tioxazafen, 3-Phenyl-5-(thiophen-2-yl)-1,2,4-oxadiazole, reference compound]: the concentration for half-maximal inhibition (IC50) (in the data set on H. contortus xL3s [2]; with eggs of H. contortus; in data set [5]) was over 50 µM throughout. Further, the “Mitotoxicity (48 h) MC50” value in data set [3] was over 50.0 µM. The CC50 at 48 h in data set [4] is over 50 µM.

These data come from PMC9616048, “Thermal proteome profiling reveals Haemonchus orphan protein HCO_011565 as a target of the nematocidal small molecule UMW-868” (Frontiers in Pharmacology, 2022).
